Where “and” joins values, the source holds several entries; their conditions need not be identical. Equal values may be shown once. Read-outs that look alike come from different tables or passages of the source.
Assays:
maize pollen = assay: Relative ROS level in maize pollen (ROS detection kit, fluorometry); format: cell-based
Method: The red channel or bright channel of the photo was analyzed, and the ROS level was represented by the light intensity of the wavelength with the largest proportion. The relative ROS level in a reproductive tissue refers to a ratio of the ROS level of the reproductive tissue to the ROS level in the control group (40% sucrose).
Taking maize pollen as an example, the experiment of a series of compounds that may affect the ROS level in the maize pollen was tested.
All reagents are dissolved in 40% sucrose. The relative ROS levels were from 6-7 measurements.

[1] = test system: sperm cells of maize pollen; assay: DNA fragmentation in sperm cells of treated maize pollen (single sperm amplified sequencing); conditions: treated pollen vs 40% sucrose control
From the text: DNA fragmentation (which is one of the characteristics of haploid) in the treated pollen is detected.
Release sperm cells on the slide and separate a single sperm for amplified sequencing (Sigma WGA4 kit).

[2] = bright channel, ratio to 40% sucrose control, final concentration as listed per compound in Table 5, 6-7 measurements
[3] = red channel, ratio to 40% sucrose control, final concentration as listed per compound in Table 5, 6-7 measurements

| Molecule | Relative ROS Level Bright (maize pollen; [2]) | Relative ROS Level Red (maize pollen; [3]) | other results |
| --- | --- | --- | --- |
| O=C(O)CC(O)(CC(=O)O)C(=O)O [Compound 21, Citric acid] | 0.74 ± 0.06 | 0.78 ± 0.02 | – |
| PI(3,5)PP_18:1 [Compound 17] | 0.82 ± 0.11 | 0.88 ± 0.08 | – |
| S=C([S-])OC1CC2CC1C1CCCC21.[K+] (stereo not shown) [Compound 16] | 1.12 ± 0.10 | 1.14 ± 0.10 | – |
| PS_18:1 [Compound 22] | 0.65 ± 0.02 | 0.63 ± 0.05 | – |
| OO [Hydrogen Peroxide, Hydrogen peroxide] | – | – | Proportion of fragmentation compared with control group [1]: higher proportion of fragmentation |
| PI(4)P_18:1 [Compound 18] | 0.82 ± 0.10 | 0.84 ± 0.08 | – |
| Cn1cc[nH]c1=S [Compound 12, Methimazole] | – | – | Proportion of fragmentation compared with control group [1]: higher proportion of fragmentation |
| O=[N+]([O-])[O-].O=[N+]([O-])[O-].[Ca+2] [Compound 2, calcium nitrate] | – | – | Relative ROS Level Bright (maize pollen; bright channel, final concentration 1.83 mM, ratio to 40% sucrose control): 2.57 ± 0.15; Relative ROS Level Bright (maize pollen; bright channel, final concentration 18.3 mM, ratio to 40% sucrose control): 3.08 ± 0.12; Relative ROS Level Red (maize pollen; red channel, final concentration 1.83 mM, ratio to 40% sucrose control): 2.55 ± 0.21; Relative ROS Level Red (maize pollen; red channel, final concentration 18.3 mM, ratio to 40% sucrose control): 2.97 ± 0.12 |
| C/C1=C/C(=O)O[C@@H]2C[C@@H](CC[C@H](C)/C=C\CC1)O[C@@](O)([C@@H]1CSC(=O)N1)C2 [Compound 8, Latrunculin B] | 1.64 ± 0.10 | 1.66 ± 0.06 | – |
| 1,2-Octadecyl Phosphatidylinositol Di-4,5-Phosphate [Compound 5] | 1.06 ± 0.06 | 1.05 ± 0.07 | – |
| C/C1=C\[C@H](C)C[C@H](C)OC(=O)C[C@H](c2ccc(O)cc2)NC(=O)[C@@H](Cc2c(Br)[nH]c3ccccc23)N(C)C(=O)[C@H](C)NC(=O)[C@@H](C)C1 [Compound 6, Jasplakinolide] | 1.79 ± 0.16 | 1.77 ± 0.16 | – |
| O=P(O)(O)O[C@@H]1[C@H](O)[C@H](O)[C@@H](OP(=O)(O)O)[C@H](OP(=O)(O)O)[C@H]1O [Compound 20, IP3(1,4,5)] | 0.60 ± 0.02 | 0.67 ± 0.03 | – |
| Nc1ncnc2c1ncn2[C@@H]1O[C@@H]2COP(=O)(O)O[C@H]2[C@H]1O [Compound 3, cyclic Adenosine Monophosphate] | 2.04 ± 0.15 | 1.97 ± 0.10 | – |
| CC(=O)OC(C)(C)/C=C/C(=O)[C@](C)(O)[C@H]1[C@H](O)C[C@@]2(C)[C@@H]3CC=C4[C@@H](C=C(O)C(=O)C4(C)C)[C@]3(C)C(=O)C[C@]12C [Compound 7, Cucurbitacin E] | 1.37 ± 0.02 | 1.31 ± 0.08 | – |
| choline phosphate [Compound 14] | – | – | Relative ROS Level Bright (maize pollen): 1.27 ± 0.11; Relative ROS Level Red (maize pollen): 1.28 ± 0.08 |
| inositol triphosphate [Compound 4] | 1.37 ± 0.00 | 1.39 ± 0.01 | – |
| [Ca+2].[Cl-].[Cl-] [Compound 1, calcium chloride] | – | – | Relative ROS Level Bright (maize pollen): 4.03 ± 0.24 and 3.11 ± 0.23; Relative ROS Level Red (maize pollen): 3.81 ± 0.21 and 3.01 ± 0.23; effect on relative ROS level (in words) (maize pollen): most obvious effect on the increase of ROS level |
| Cc1ccc2c(c1)C(=O)C1(O)CCN(c3ccccc3)C1=N2 (stereo not shown) [Compound 10, Blebbistatin] | 1.37 ± 0.14 | 1.35 ± 0.17 | – |
| PI(3)P_18:1 [Compound 19] | 0.62 ± 0.06 | 0.63 ± 0.05 | – |
| PA_18:1 [Compound 25] | 0.33 ± 0.02 | 0.34 ± 0.01 | – |
| C/C1=C/C(=O)O[C@@H]2C[C@@H](CC[C@H](C)/C=C\C=C\CC1)O[C@@](O)([C@@H]1CSC(=O)N1)C2 [Compound 9, Latrunculin A] | 1.37 ± 0.00 | 1.35 ± 0.05 | – |
| PI_18:1 [Compound 24] | 0.81 ± 0.05 | 0.88 ± 0.06 | – |
| PE_18:1 [Compound 23] | 0.92 ± 0.08 | 0.98 ± 0.04 | – |
| PG_18:1 [Compound 26] | 0.32 ± 0.00 | 0.33 ± 0.00 | – |
| c1ccc2c(c1)[I+]c1ccccc1-2 [Compound 11, Diphenyl iodide chloride] | 1.53 ± 0.14 | 1.55 ± 0.13 | – |
| O=C(NCCN1CCC(n2c(=O)[nH]c3ccccc32)CC1)c1cc2cc(F)ccc2[nH]1 [Compound 13] | 1.35 ± 0.06 | 1.34 ± 0.07 | – |
| Lecithin PC_18:1 [Compound 15] | 1.21 ± 0.18 | 1.19 ± 0.17 | – |

Source: patent publication US12501868B2, “Haploid induction compounds and methods for use thereof” (WIMI BIOTECHNOLOGY (HAINAN) CO., LTD., priority 2020, dated 2025)
